Patent publication US11504371B2, “Quinazolines compound, preparation method therefor and application thereof” (Beijing Normal University, priority 2017, dated 2022)

Assays:
Type in all cases: cell-based
[1] = tested on: human prostate cancer cell line (DU145); experiment: MTT assay, tumor cell proliferation inhibition, DU145; settings: DU145, MTT, 72 h; read-out: Tumor inhibition rate (IC50)
Method: (§1) Cell lines to be tested: human hepatoma cell line (HepG2), human lung cancer cell line (A549), human prostate cancer cell line (DU145), human breast cancer cell line (MCF-7), human neuroblastoma cell line (SH-SY5Y), human gastric mucosal cell line (Ges-1) and human embryonic lung fibroblast cell line (CCC-HPF-1) (the cells to be tested were purchased from the Cancer Hospital of Chinese Academy of Medical Sciences).
(§2) The cells in logarithmic growth phase were treated to prepare a single cell suspension, with the cell density adjusted, which was seeded in a 96-well cell culture plate. About 2×10^3 cells were contained in 100 μL per well, and cultured in a cell incubator at 37° C., 5% CO2, and saturated humidity for 24 h. The used medium was aspirated and abandoned, and then 100 μL of the target compound in different concentrations (0.1 μM-100 μM) were added for drug treatment. Five duplicate wells were prepared for each concentration. The background blank well, negative control well and positive control well were also prepared. All the wells were placed in a cell culture incubator at 37° C., 5% CO2, saturated humidity for another 72 h. Then, each well was added with 10 μL of MTT solution (5 mg/mL) and incubated for another 4 h. After that, each well was added with 100 μL of 10% SDS-0.1% NH4Cl (10% SDS purchased from Beijing Mengyimei Biotechnology Co., Ltd.) solution, and incubated at 37° C. for 10 h in the dark. Then, the absorbance OD was measured at 570 nm using a microplate reader at a reference wavelength of 650 nm. Cell proliferation inhibition was calculated according to the following formula: % inhibition=(ODcontrol−ODtreat)(ODcontrol−ODblank)×100. […] Each group was performed at least three times in parallel.

[2] = tested on: human hepatoma cell line (HepG2); experiment: MTT assay, tumor cell proliferation inhibition, HepG2; settings: 72 h, read-out: Tumor inhibition rate (IC50)
Method: as §1, §2

[3] = tested on: human neuroblastoma cell line (SH-SY5Y); experiment: MTT assay, tumor cell proliferation inhibition, SH-SY5Y; settings: for IC50: SH-SY5Y, 72 h, read-out: Tumor inhibition rate (IC50)
Method: as §1, §2

[4] = tested on: human lung cancer cell line (A549); experiment: MTT assay, tumor cell proliferation inhibition, A549; settings: for IC50: A549, MTT, 72 h, read-out: Tumor inhibition rate (IC50); for inhibitory activity on A549 (in words): MTT, summary of Table 1
Method: as §1, §2

[5] = tested on: human breast cancer cell line (MCF-7); experiment: MTT assay, tumor cell proliferation inhibition, MCF-7; settings: for IC50: MCF-7, MTT, 72 h, read-out: Tumor inhibition rate (IC50)
Method: as §1, §2

SMILES | IC50 [1] | IC50 [2] | IC50 [3] | IC50 [4] | IC50 [5] | inhibitory activity on A549 (in words) [4] | inhibitory effect on SH-SY5Y (in words) ([3]; summary of Table 1) | inhibitory effect on MCF-7 (in words) ([5]; MTT, summary of Table 1)
O=[N+]([O-])c1ccc(COc2cccc(Nc3ncnc4cc5c(cc34)OCCOCCO5)c2)cc1 [Compound 2, N-(3-((4-nitrophenyl)methoxy)phenyl)-6,7-(benzo-9-crown-3)-4-quinazolinamine] | > 100 µM | 65.3 µM | 36.6 µM | 15.5 µM | 42.4 µM |  |  | 
FC(F)(F)c1ccc(COc2ccccc2Nc2ncnc3cc4c(cc23)OCCOCCO4)cc1 [Compound 7, N-(2-((4-trifluoromethylphenyl)methoxy)phenyl)-6,7-(benzo-9-crown-3)-4-quinazolinamine] | > 100 µM | 87.4 µM | > 100 µM | > 100 µM | > 100 µM |  |  | 
FC(F)(F)c1ccc(COc2cccc(Nc3ncnc4cc5c(cc34)OCCOCCO5)c2)cc1 [Compound 8, N-(3-((4-trifluoromethylphenyl)methoxy)phenyl)-6,7-(benzo-9-crown-3)-4-quinazolinamine] | > 100 µM | > 100 µM | 19.3 µM | > 100 µM | > 100 µM |  |  | 
N#Cc1ccc(COc2cccc(Nc3ncnc4cc5c(cc34)OCCOCCOCCO5)c2)cc1 [Compound 10, N-(3-((4-cyanophenyl)methoxy)phenyl)-6,7-(benzo-12-crown-4)-4-quinazolinamine] | > 100 µM | > 100 µM | > 100 µM | > 100 µM | > 100 µM |  |  | 
c1ccc(OCc2ccncc2)c(Nc2ncnc3cc4c(cc23)OCCOCCO4)c1 [Compound 12, N-(2-((4-pyridyl)methoxy)phenyl)-6,7-(benzo-9-crown-3)-4-quinazolinamine] | > 100 µM | 31.3 µM | > 100 µM | > 100 µM | > 100 µM |  |  | 
Fc1ccc(COc2ccccc2Nc2ncnc3cc4c(cc23)OCCOCCO4)cc1Cl [Compound 13, N-(2-((3-chloro,4-fluorophenyl)methoxy)phenyl)-6,7-(benzo-9-crown-3)-4-quinazolinamine] | 88.6 µM | > 100 µM | > 100 µM | 9.43 µM | > 100 µM | strong specific inhibitory activity |  | 
Fc1ccc(COc2cccc(Nc3ncnc4cc5c(cc34)OCCOCCO5)c2)cc1Cl [Compound 14, N-(3-((3-chloro,4-fluorophenyl)methoxy)phenyl)-6,7-(benzo-9-crown-3)-4-quinazolinamine] | 90.1 µM | 43.6 µM | 22.7 µM | > 100 µM | > 100 µM |  |  | 
O=[N+]([O-])c1ccc(COc2ccccc2Nc2ncnc3cc4c(cc23)OCCOCCOCCO4)cc1 [Compound 18, N-(2-((4-nitrophenyl)methoxy)phenyl)-6,7-(benzo-12-crown-4)-4-quinazolinamine] | > 100 µM | 60.8 µM | 75.5 µM | 29.9 µM | > 100 µM |  |  | 
O=[N+]([O-])c1ccc(COc2cccc(Nc3ncnc4cc5c(cc34)OCCOCCOCCO5)c2)cc1 [Compound 19, N-(3-((4-nitrophenyl)methoxy)phenyl)-6,7-(benzo-12-crown-4)-4-quinazolinamine] | > 100 µM | > 100 µM | > 100 µM | > 100 µM | > 100 µM |  |  | 
O=[N+]([O-])c1ccc(COc2ccc(Nc3ncnc4cc5c(cc34)OCCOCCOCCO5)cc2)cc1 [Compound 20, N-(4-((4-nitrophenyl)methoxy)phenyl)-6,7-(benzo-12-crown-4)-4-quinazolinamine] | > 100 µM | 19.4 µM | 58.6 µM | > 100 µM | 66.5 µM |  |  | 
c1ccc(COc2cccc(Nc3ncnc4cc5c(cc34)OCCOCCOCCO5)c2)cc1 [Compound 21, N-(3-((phenyl)methoxy)phenyl)-6,7-(benzo-12-crown-4)-4-quinazolinamine] | > 100 µM | > 100 µM | 22.8 µM | > 100 µM | > 100 µM |  |  | 
FC(F)(F)c1ccc(COc2ccccc2Nc2ncnc3cc4c(cc23)OCCOCCOCCO4)cc1 [Compound 22, N-(2-((4-trifluoromethylphenyl)methoxy)phenyl)-6,7-(benzo-12-crown-4)-4-quinazolinamine] | > 100 µM | > 100 µM | > 100 µM | > 100 µM | > 100 µM |  |  | 

The next lines start with results.

IC50 [1] | IC50 [2] | IC50 [3] | IC50 [4] | IC50 [5] | SMILES | inhibitory activity on A549 (in words) [4] | inhibitory effect on SH-SY5Y (in words) ([3]; summary of Table 1) | inhibitory effect on MCF-7 (in words) ([5]; MTT, summary of Table 1)
> 100 µM | > 100 µM | 84.5 µM | 14.4 µM | > 100 µM | Fc1ccc(COc2ccccc2Nc2ncnc3cc4c(cc23)OCCOCCO4)cc1 [Compound 4, N-(2-((p-fluorophenyl)methoxy)phenyl)-6,7-(benzo-9-crown-3)-4-quinazolinamine] |  |  | 
> 100 µM | > 100 µM | 55.3 µM | 7.84 µM | 78.2 µM | Fc1ccc(COc2cccc(Nc3ncnc4cc5c(cc34)OCCOCCO5)c2)cc1 [Compound 5, N-(3-((p-fluorophenyl)methoxy)phenyl)-6,7-(benzo-9-crown-3)-4-quinazolinamine] | strong specific inhibitory activity |  | 
> 100 µM | > 100 µM | 82.7 µM | 43.3 µM | 65.2 µM | Fc1ccc(COc2ccc(Nc3ncnc4cc5c(cc34)OCCOCCO5)cc2)cc1 [Compound 6, N-(4-((p-fluorophenyl)methoxy)phenyl)-6,7-(benzo-9-crown-3)-4-quinazolinamine] |  |  | 
> 100 µM | > 100 µM | 30.4 µM | > 100 µM | > 100 µM | FC(F)(F)c1ccc(COc2ccc(Nc3ncnc4cc5c(cc34)OCCOCCO5)cc2)cc1 [Compound 9, N-(4-((4-trifluoromethylphenyl)methoxy)phenyl)-6,7-(benzo-9-crown-3)-4-quinazolinamine] |  |  | 
> 100 µM | 67.4 µM | 9.89 µM | 81.3 µM | > 100 µM | N#Cc1ccc(COc2ccc(Nc3ncnc4cc5c(cc34)OCCOCCOCCO5)cc2)cc1 [Compound 11, N-(4-((4-cyanophenyl)methoxy)phenyl)-6,7-(benzo-12-crown-4)-4-quinazolinamine] |  | strong specific inhibitory effect | 
> 100 µM | 76.5 µM | > 100 µM | > 100 µM | > 100 µM | Fc1ccc(COc2ccc(Nc3ncnc4cc5c(cc34)OCCOCCO5)cc2)cc1Cl [Compound 15, N-(4-((3-chloro,4-fluorophenyl)methoxy)phenyl)-6,7-(benzo-9-crown-3)-4-quinazolinamine] |  |  | 
> 100 µM | > 100 µM | 20.7 µM | > 100 µM | 8.31 µM | Fc1ccc(COc2ccc(Nc3ncnc4cc5c(cc34)OCCOCCOCCO5)cc2)cc1 [Compound 17, N-(4-((p-fluorophenyl)methoxy)phenyl)-6,7-(benzo-12-crown-4)-4-quinazolinamine] |  |  | strong specific inhibitory effect
> 100 µM | > 100 µM | > 100 µM | > 100 µM | > 100 µM | FC(F)(F)c1ccc(COc2ccc(Nc3ncnc4cc5c(cc34)OCCOCCOCCO5)cc2)cc1 [Compound 24, N-(4-((4-trifluoromethylphenyl)methoxy)phenyl)-6,7-(benzo-12-crown-4)-4-quinazolinamine] |  |  | 
